Source: the NIST ThermoML archive (doi:10.1016/j.fluid.2010.12.012)
Numbers after ± are expanded uncertainties.

Assay: wn = mass fraction of the nth substance listed
Details: 294.9 K, Liquid; for viscosity: Cone and plate viscometry; for mass density: Vibrating tube method

CC [ethane] + CO
Details | mass density [kg/m3] | viscosity [mPa·s]
1196 kPa, w1 = 0.056 | 750 ± 2 | 0.54 ± 0.02
2123 kPa, w1 = 0.12 | 720 ± 2 | 0.43 ± 0.02
3130 kPa, w1 = 0.225 | 671 ± 2 | 0.32 ± 0.01
